Laboratory results reported in the supplement of paper PMC7017272.
± gives the standard deviation of the averaged measurements. One block for each compound: values may come before it.

Tests used:
Conditions in all cases: treatment time: 3 days
UT-SCC-24A [1] = assay: maximal % inhibition of viability relative to DMSO; higher = stronger effect
Experimental: (§1)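 HNSCC cell lines (500 cells/well, 384-well) were cultured on plastic, on top of (2D) or embedded (3D) in Matrigel or human leiomyoma matrix Myogel (500 ug/mL; Myogel 3D mixed with rat collagen I). Cells were treated for 3 days with 5 ten-fold concentrations of each drug, and viability was read by CellTiter-Glo. Viability was normalised to DMSO (0% inhibition) and 100 uM benzethonium chloride (100% inhibition) controls and fitted with the FIMM DSRT pipeline to give IC50 (nM), maximal % inhibition and the drug sensitivity score (DSS). Suffixes _1/_2/_3 on drug names are replicates.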

UT-SCC-106A = assay: drug sensitivity score (DSS); higher = more sensitive; extreme values may be limits of the assay
Method in brief: (§2)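 Viability of HPV-negative HNSCC cell lines was measured by CellTiter-Glo 2.0 luminescence. Cells were seeded at 500 cells/well in 384-well plates on plastic, on Matrigel- or Myogel-coated wells (500 µg/mL), or embedded in Matrigel or Myogel plus rat collagen I, then given compounds at five 10-fold concentrations for 3 days, with signals normalised to vehicle (0.1% DMSO) and cell-killing control wells. Fitting of percent-inhibition dose–response curves in the FIMM pipeline yielded IC50, maximal inhibition and drug sensitivity score.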

UT-SCC-14 = assay: as above
Method in brief: as §2

UT-SCC-24B = assay: as above
Method in brief: as §2

UT-SCC-28 [2] = assay: as above
Method in brief: as §2

UT-SCC-40 = assay: as above
Method in brief: as §2

UT-SCC-42A [3] = assay: as above
Method in brief: as §2

UT-SCC-42B = assay: as above
Method in brief: as §2

UT-SCC-44 = assay: as above
Method in brief: as §2

UT-SCC-73 = assay: as above
Method in brief: as §2

UT-SCC-81 [4] = assay: as above
Method in brief: as §2

UT-SCC-8 = assay: as above
Method in brief: as §2

UT-SCC-28 [5] = assay: relative IC50 (midpoint of the fitted curve; maximal inhibition may be below 50%); higher = less potent
Method in brief: as §2

UT-SCC-42A [6] = assay: as above
Method in brief: as §2

UT-SCC-81 [7] = assay: as above
Method in brief: as §2

UT-SCC-24A [8] = assay: relative IC50 (midpoint of the fitted curve; maximal inhibition may be below 50%); higher = less potent
Experimental: as §1

[9] = culture condition: embedded in Matrigel
[10] = culture condition: embedded in Myogel + collagen I
[11] = culture condition: on top of Matrigel
[12] = culture condition: on top of Myogel
[13] = culture condition: plastic 2D (no matrix)

- relative IC50 (UT-SCC-28 [5]; [9]): > 989 nM
- relative IC50 (UT-SCC-28 [5]; [13]): > 989 nM
- relative IC50 (UT-SCC-42A [6]; [9]): > 989 nM
- relative IC50 (UT-SCC-42A [6]; [10]): > 989 nM
- relative IC50 (UT-SCC-42A [6]; [11]): > 989 nM
- relative IC50 (UT-SCC-42A [6]; [12]): > 989 nM
- relative IC50 (UT-SCC-42A [6]; [13]): > 989 nM
- relative IC50 (UT-SCC-81 [7]; [10]): > 989 nM
- relative IC50 (UT-SCC-81 [7]; [12]): > 989 nM
- relative IC50 (UT-SCC-81 [7]; [13]): > 989 nM
- relative IC50 (UT-SCC-24A [8]; [11]): > 989 nM
- relative IC50 (UT-SCC-24A [8]; [12]): > 989 nM
- relative IC50 (UT-SCC-24A [8]; [13]): > 989 nM
Compound: Cn1c(=O)n(-c2ccc(C(C)(C)C#N)cc2)c2c3cc(-c4cnc5ccccc5c4)ccc3ncc21 [Dactolisib]
- maximal % inhibition of viability (UT-SCC-24A [1]; [9]): 34.6 ± 9%
- maximal % inhibition of viability (UT-SCC-24A [1]; [10]): 14.9 ± 11%
- maximal % inhibition of viability (UT-SCC-24A [1]; [11]): 14.7 ± 5.4%
- maximal % inhibition of viability (UT-SCC-24A [1]; [12]): 4.17 ± 3.1%
- maximal % inhibition of viability (UT-SCC-24A [1]; [13]): 6.6 ± 2.1%
- drug sensitivity score (UT-SCC-106A; [9]): 0 DSS
- drug sensitivity score (UT-SCC-106A; [10]): 0 DSS
- drug sensitivity score (UT-SCC-106A; [11]): 0 DSS
- drug sensitivity score (UT-SCC-106A; [12]): 0 DSS
- drug sensitivity score (UT-SCC-106A; [13]): 0.0333 ± 0.058 DSS
- drug sensitivity score (UT-SCC-14; [9]): 3.03 ± 5.2 DSS
- drug sensitivity score (UT-SCC-14; [10]): 0 DSS
- drug sensitivity score (UT-SCC-14; [11]): 0 DSS
- drug sensitivity score (UT-SCC-14; [12]): 0 DSS
- drug sensitivity score (UT-SCC-14; [13]): 0.3 ± 0.52 DSS
- drug sensitivity score (UT-SCC-24B; [9]): 11.6 ± 0.64 DSS
- drug sensitivity score (UT-SCC-24B; [10]): 16.3 ± 0.52 DSS
- drug sensitivity score (UT-SCC-24B; [11]): 13.4 ± 0.46 DSS
- drug sensitivity score (UT-SCC-24B; [12]): 13.6 ± 0.51 DSS
- drug sensitivity score (UT-SCC-24B; [13]): 12.8 ± 0.25 DSS
- drug sensitivity score (UT-SCC-28 [2]; [9]): 0 DSS
- drug sensitivity score (UT-SCC-28 [2]; [10]): 0.133 ± 0.23 DSS
- drug sensitivity score (UT-SCC-28 [2]; [11]): 0.1 ± 0.17 DSS
- drug sensitivity score (UT-SCC-28 [2]; [13]): 0 DSS
- drug sensitivity score (UT-SCC-40; [9]): 0.5 ± 0.87 DSS
- drug sensitivity score (UT-SCC-40; [10]): 0 DSS
- drug sensitivity score (UT-SCC-40; [11]): 0 DSS
- drug sensitivity score (UT-SCC-40; [12]): 0 DSS
- drug sensitivity score (UT-SCC-40; [13]): 0 DSS
- drug sensitivity score (UT-SCC-42A [3]; [9]): 0 DSS
- drug sensitivity score (UT-SCC-42A [3]; [10]): 0 DSS
- drug sensitivity score (UT-SCC-42A [3]; [11]): 0 DSS
- drug sensitivity score (UT-SCC-42A [3]; [12]): 0 DSS
- drug sensitivity score (UT-SCC-42A [3]; [13]): 0 DSS
- drug sensitivity score (UT-SCC-42B; [9]): 0 DSS
- drug sensitivity score (UT-SCC-42B; [11]): 0 DSS
- drug sensitivity score (UT-SCC-42B; [12]): 0 DSS
- drug sensitivity score (UT-SCC-42B; [13]): 0 DSS
- drug sensitivity score (UT-SCC-44; [9]): 0 DSS
- drug sensitivity score (UT-SCC-44; [10]): 0 DSS
- drug sensitivity score (UT-SCC-44; [11]): 0 DSS
- drug sensitivity score (UT-SCC-44; [12]): 0 DSS
- drug sensitivity score (UT-SCC-44; [13]): 0.9 ± 1.6 DSS
- drug sensitivity score (UT-SCC-73; [9]): 0 DSS
- drug sensitivity score (UT-SCC-73; [10]): 0 DSS
- drug sensitivity score (UT-SCC-73; [11]): 0 DSS
- drug sensitivity score (UT-SCC-73; [12]): 0 DSS
- drug sensitivity score (UT-SCC-73; [13]): 0 DSS
- drug sensitivity score (UT-SCC-81 [4]; [9]): 3.7 ± 3.4 DSS
- drug sensitivity score (UT-SCC-81 [4]; [10]): 0 DSS
- drug sensitivity score (UT-SCC-81 [4]; [11]): 0 DSS
- drug sensitivity score (UT-SCC-81 [4]; [12]): 0 DSS
- drug sensitivity score (UT-SCC-81 [4]; [13]): 0 DSS
- drug sensitivity score (UT-SCC-8; [9]): 0 DSS
- drug sensitivity score (UT-SCC-8; [10]): 0.6 ± 0.66 DSS
- drug sensitivity score (UT-SCC-8; [11]): 0 DSS
- drug sensitivity score (UT-SCC-8; [12]): 0.133 ± 0.15 DSS
- drug sensitivity score (UT-SCC-8; [13]): 0 DSS

- relative IC50 (UT-SCC-28 [5]; [9]): 79.9 nM
- relative IC50 (UT-SCC-42A [6]; [10]): 263 nM
- relative IC50 (UT-SCC-42A [6]; [12]): 111 nM
- relative IC50 (UT-SCC-81 [7]; [9]): 53.5 nM
- relative IC50 (UT-SCC-81 [7]; [11]): 95.3 nM
- relative IC50 (UT-SCC-24A [8]; [12]): 137 nM
- relative IC50 (UT-SCC-24A [8]; [13]): 87.9 nM
Compound: Cn1cnc2c(F)c(Nc3ccc(Br)cc3Cl)c(C(=O)NOCCO)cc21 [Selumetinib]
- maximal % inhibition of viability (UT-SCC-24A [1]; [9]): 81.7 ± 2.1%
- maximal % inhibition of viability (UT-SCC-24A [1]; [10]): 59.2 ± 2.4%
- maximal % inhibition of viability (UT-SCC-24A [1]; [11]): 76.7 ± 1.4%
- maximal % inhibition of viability (UT-SCC-24A [1]; [12]): 38.4 ± 3%
- maximal % inhibition of viability (UT-SCC-24A [1]; [13]): 70.2 ± 7.2%
- drug sensitivity score (UT-SCC-106A; [9]): 14.6 ± 2 DSS
- drug sensitivity score (UT-SCC-106A; [10]): 0.867 ± 1.5 DSS
- drug sensitivity score (UT-SCC-106A; [11]): 16.1 ± 0.75 DSS
- drug sensitivity score (UT-SCC-106A; [12]): 1.03 ± 1.7 DSS
- drug sensitivity score (UT-SCC-106A; [13]): 15.7 ± 2.3 DSS
- drug sensitivity score (UT-SCC-14; [9]): 7.13 ± 6.1 DSS
- drug sensitivity score (UT-SCC-14; [10]): 5.17 ± 3.2 DSS
- drug sensitivity score (UT-SCC-14; [11]): 7.17 ± 3 DSS
- drug sensitivity score (UT-SCC-14; [12]): 3.5 ± 3.6 DSS
- drug sensitivity score (UT-SCC-14; [13]): 0.833 ± 1.4 DSS
- drug sensitivity score (UT-SCC-24B; [9]): 18.9 ± 1.8 DSS
- drug sensitivity score (UT-SCC-24B; [10]): 18.2 ± 1.7 DSS
- drug sensitivity score (UT-SCC-24B; [11]): 18.6 ± 0.25 DSS
- drug sensitivity score (UT-SCC-24B; [12]): 17.6 ± 0.75 DSS
- drug sensitivity score (UT-SCC-24B; [13]): 21 ± 0.4 DSS
- drug sensitivity score (UT-SCC-28 [2]; [9]): 8.07 ± 4.3 DSS
- drug sensitivity score (UT-SCC-28 [2]; [10]): 4.4 ± 3.9 DSS
- drug sensitivity score (UT-SCC-28 [2]; [11]): 6.2 ± 5.5 DSS
- drug sensitivity score (UT-SCC-28 [2]; [13]): 3.8 ± 3.9 DSS
- drug sensitivity score (UT-SCC-40; [9]): 22.6 ± 0.71 DSS
- drug sensitivity score (UT-SCC-40; [10]): 17.6 ± 0.8 DSS
- drug sensitivity score (UT-SCC-40; [11]): 20.7 ± 0.92 DSS
- drug sensitivity score (UT-SCC-40; [12]): 11.2 ± 2.4 DSS
- drug sensitivity score (UT-SCC-40; [13]): 12.6 ± 2.5 DSS
- drug sensitivity score (UT-SCC-42A [3]; [9]): 10.9 ± 4.8 DSS
- drug sensitivity score (UT-SCC-42A [3]; [10]): 4.23 ± 4.5 DSS
- drug sensitivity score (UT-SCC-42A [3]; [11]): 14.4 ± 5 DSS
- drug sensitivity score (UT-SCC-42A [3]; [12]): 9.23 ± 2 DSS
- drug sensitivity score (UT-SCC-42A [3]; [13]): 10.8 ± 3 DSS
- drug sensitivity score (UT-SCC-42B; [9]): 16.5 ± 4.6 DSS
- drug sensitivity score (UT-SCC-42B; [11]): 8.67 ± 2.3 DSS
- drug sensitivity score (UT-SCC-42B; [12]): 2.13 ± 0.76 DSS
- drug sensitivity score (UT-SCC-42B; [13]): 2.33 ± 2 DSS
- drug sensitivity score (UT-SCC-44; [9]): 15.8 ± 5.2 DSS
- drug sensitivity score (UT-SCC-44; [10]): 4.83 ± 4.2 DSS
- drug sensitivity score (UT-SCC-44; [11]): 12.3 ± 0.94 DSS
- drug sensitivity score (UT-SCC-44; [12]): 8.17 ± 1.2 DSS
- drug sensitivity score (UT-SCC-44; [13]): 7.8 ± 3.5 DSS
- drug sensitivity score (UT-SCC-73; [9]): 21 ± 2.8 DSS
- drug sensitivity score (UT-SCC-73; [10]): 13.5 ± 3.5 DSS
- drug sensitivity score (UT-SCC-73; [11]): 20.2 ± 2.6 DSS
- drug sensitivity score (UT-SCC-73; [12]): 15.2 ± 1.1 DSS
- drug sensitivity score (UT-SCC-73; [13]): 17.9 ± 1.4 DSS
- drug sensitivity score (UT-SCC-81 [4]; [9]): 24.4 ± 0.94 DSS
- drug sensitivity score (UT-SCC-81 [4]; [10]): 7.33 ± 6.3 DSS
- drug sensitivity score (UT-SCC-81 [4]; [11]): 19.9 ± 0.72 DSS
- drug sensitivity score (UT-SCC-81 [4]; [12]): 9.93 ± 3.6 DSS
- drug sensitivity score (UT-SCC-81 [4]; [13]): 7.87 ± 8 DSS
- drug sensitivity score (UT-SCC-8; [9]): 10.1 ± 1.3 DSS
- drug sensitivity score (UT-SCC-8; [10]): 1.37 ± 2.4 DSS
- drug sensitivity score (UT-SCC-8; [11]): 9.63 ± 0.58 DSS
- drug sensitivity score (UT-SCC-8; [12]): 10.3 ± 1.5 DSS
- drug sensitivity score (UT-SCC-8; [13]): 5.63 ± 2.3 DSS
